The values that follow come from ChEMBL document CHEMBL1806455, “Synthesis, activity and pharmacokinetics of novel antibacterial 15-membered ring macrolones” (Eur J Med Chem, 2011).

In brackets after ≈: the same amount, converted by molar mass.

Common to all, as to format: functional
Assay [1] relates to Staphylococcus aureus. As to the kind of experiment: Antibacterial activity against inducible macrolide-lincosamide-streptogramin B resistant Staphylococcus aureus 90256 by broth microdilution method. Background: In broth dilution the organism is exposed to a series of concentrations in liquid medium.
Assay [2] has as its system Streptococcus pyogenes. As to the kind of experiment: Antibacterial activity against macrolide, lincosamide, streptogramin-resistant Streptococcus pyogenes 166 GR-Micro by broth microdilution method.
Assay [3] deals with Streptococcus pyogenes. Description: Antibacterial activity against inducible macrolide-lincosamide-streptogramin B resistant Streptococcus pyogenes Finland 11 by broth microdilution method.
Assay [4] deals with Streptococcus pneumoniae. As to the kind of experiment: Antibacterial activity against erythromycin-sensitive Streptococcus pneumoniae SP030 by broth microdilution method.
Assay [5] concerns Streptococcus pyogenes. As to the kind of experiment: Antibacterial activity against erythromycin-sensitive Streptococcus pyogenes 3565 by broth microdilution method.
In assay [6] the test system is Streptococcus pneumoniae. Description: Antibacterial activity against efflux-mediated macrolide-resistant Streptococcus pneumoniae Ci137 by broth microdilution method.
In a further assay the test system is Moraxella catarrhalis. As to the kind of experiment: Antibacterial activity against Moraxella catarrhalis ATCC 23246 by broth microdilution method.
Assay [7] concerns Staphylococcus aureus. Description: Antibacterial activity against erythromycin-sensitive Staphylococcus aureus ATCC 13709 by broth microdilution method.
Assay [8] concerns Staphylococcus aureus. Description: Antibacterial activity against constitutive macrolide, lincosamide, streptogramin-resistant Staphylococcus aureus PK2 by broth microdilution method.
The test system of assay [9] is Streptococcus pyogenes. As to the kind of experiment: Antibacterial activity against efflux-mediated macrolide-resistance Streptococcus pyogenes 2 Finland by broth microdilution method.
Assay [10] deals with Streptococcus pneumoniae. Description: Antibacterial activity against inducible macrolide-resistant, constitutive lincosamide, streptogramin-resistant Streptococcus pneumoniae 134 GR M by broth microdilution method.
For assay [11], the system named is Streptococcus pneumoniae. As to the kind of experiment: Antibacterial activity against constitutive macrolide, lincosamide, streptogramin-resistant Streptococcus pneumoniae 58 spain by broth microdilution method.
Assay [12] relates to Staphylococcus aureus. As to the kind of experiment: Antibacterial activity against efflux-mediated macrolide-resistant Staphylococcus aureus PK1 by broth microdilution method.
The next assay has as its system Haemophilus influenzae. As to the kind of experiment: Antibacterial activity against Haemophilus influenzae ATCC 49247 by broth microdilution method.

On to `CC[C@H]1OC(=O)[C@H](C)[C@@H](O[C@H]2C[C@@](C)(OC)[C@@H](OC(=O)CCOCCOCCNc3cc4c(=O)c(C(=O)O)cn(C(C)C)c4cc3Cl)[C@H](C)O2)[C@H](C)[C@@H](O[C@@H]2O[C@H](C)C[C@H](N(C)C)[C@H]2O)[C@](C)(O)C[C@@H](C)CN(C)[C@H](C)[C@@H](O)[C@]1(C)O`, for which the MIC with Staphylococcus aureus [1] was 0.25 µg/mL (≈ 0.213 µM); with Streptococcus pyogenes [2], 1 µg/mL (≈ 0.853 µM); against Streptococcus pyogenes [3] it was at most 0.125 µg/mL; in the assay on Streptococcus pneumoniae [4], at most 0.125 µg/mL; against Streptococcus pyogenes [5] it was at most 0.125 µg/mL; against Streptococcus pneumoniae [6] it was at most 0.125 µg/mL. Further, the MIC with Moraxella catarrhalis was 1 µg/mL (≈ 0.853 µM); with Staphylococcus aureus [7] it was at most 0.125 µg/mL; against Staphylococcus aureus [8], 64 µg/mL (≈ 54.6 µM); with Streptococcus pyogenes [9], at most 0.125 µg/mL; in the assay on Streptococcus pneumoniae [10], 0.25 µg/mL (≈ 0.213 µM); with Streptococcus pneumoniae [11], at most 0.125 µg/mL. Also, the MIC in the assay on Staphylococcus aureus [12] is at most 0.125 µg/mL; in the assay with Haemophilus influenzae it was 1 µg/mL (≈ 0.853 µM).
For `CC[C@H]1OC(=O)[C@H](C)[C@@H](O[C@H]2C[C@@](C)(OC)[C@@H](OC(=O)CCOCCNc3ccc4c(c3)c(=O)c(C(=O)O)cn4C3CC3)[C@H](C)O2)[C@H](C)[C@@H](O[C@@H]2O[C@H](C)C[C@H](N(C)C)[C@H]2O)[C@](C)(O)C[C@@H](C)CN(C)[C@H](C)[C@@H](O)[C@]1(C)O`, the MIC with Staphylococcus aureus [1] was 0.5 µg/mL (≈ 0.458 µM); in the assay on Streptococcus pyogenes [2], at most 0.125 µg/mL; against Streptococcus pyogenes [3], at most 0.125 µg/mL; against Streptococcus pneumoniae [4], at most 0.125 µg/mL; with Streptococcus pyogenes [5], at most 0.125 µg/mL; in the assay on Streptococcus pneumoniae [6], at most 0.125 µg/mL. For the same molecule, the MIC in the assay on Moraxella catarrhalis was 0.5 µg/mL (≈ 0.458 µM); in the assay on Staphylococcus aureus [7], 0.5 µg/mL (≈ 0.458 µM); in the assay on Staphylococcus aureus [8], 32 µg/mL (≈ 29.3 µM); in the assay with Streptococcus pyogenes [9] it was at most 0.125 µg/mL; in the assay on Streptococcus pneumoniae [10], 0.25 µg/mL (≈ 0.229 µM); against Streptococcus pneumoniae [11], at most 0.125 µg/mL. In addition, the MIC with Staphylococcus aureus [12] and with Haemophilus influenzae was 1 µg/mL (≈ 0.916 µM) each time.
For the molecule `CC[C@H]1OC(=O)[C@H](C)[C@@H](O[C@H]2C[C@@](C)(OC)[C@@H](OC(=O)CCOCCOc3ccc4c(c3)c(=O)c(C(=O)O)cn4C3CC3)[C@H](C)O2)[C@H](C)[C@@H](O[C@@H]2O[C@H](C)C[C@H](N(C)C)[C@H]2O)[C@](C)(O)C[C@@H](C)CN(C)[C@H](C)[C@@H](O)[C@]1(C)O`, the MIC with Staphylococcus aureus [1] is 1 µg/mL (≈ 0.915 µM); in the assay on Streptococcus pyogenes [2], 0.25 µg/mL (≈ 0.229 µM); in the assay with Streptococcus pyogenes [3], at most 0.125 µg/mL; against Streptococcus pneumoniae [4], at most 0.125 µg/mL; with Streptococcus pyogenes [5], at most 0.125 µg/mL; in the assay on Streptococcus pneumoniae [6] it was at most 0.125 µg/mL. Also, the MIC in the assay with Moraxella catarrhalis was 0.5 µg/mL (≈ 0.458 µM); in the assay on Staphylococcus aureus [7], at most 0.125 µg/mL; with Staphylococcus aureus [8], 32 µg/mL (≈ 29.3 µM); in the assay on Streptococcus pyogenes [9], at most 0.125 µg/mL; in the assay with Streptococcus pneumoniae [10], at most 0.125 µg/mL; with Streptococcus pneumoniae [11], at most 0.125 µg/mL. Also, the figures for the MIC against Staphylococcus aureus [12] and with Haemophilus influenzae were 0.25 µg/mL (≈ 0.229 µM) and 0.5 µg/mL (≈ 0.458 µM), respectively.
On to `CC[C@H]1OC(=O)[C@H](C)[C@@H](O[C@H]2C[C@@](C)(OC)[C@@H](OC(=O)CCOCCOCCNc3ccc4c(c3)c(=O)c(C(=O)O)cn4CC)[C@H](C)O2)[C@H](C)[C@@H](O[C@@H]2O[C@H](C)C[C@H](N(C)C)[C@H]2O)[C@](C)(O)C[C@@H](C)CN(C)[C@H](C)[C@@H](O)[C@]1(C)O`, for which the MIC in the assay on Staphylococcus aureus [1] is 0.25 µg/mL (≈ 0.223 µM); with Streptococcus pyogenes [2], at most 0.125 µg/mL; with Streptococcus pyogenes [3], at most 0.125 µg/mL; in the assay with Streptococcus pneumoniae [4] it was at most 0.125 µg/mL; against Streptococcus pyogenes [5], at most 0.125 µg/mL; against Streptococcus pneumoniae [6], at most 0.125 µg/mL. Further, the MIC in the assay with Moraxella catarrhalis is 2 µg/mL (≈ 1.78 µM); with Staphylococcus aureus [7] it was 0.25 µg/mL (≈ 0.223 µM); in the assay with Staphylococcus aureus [8], 64 µg/mL (≈ 57 µM); against Streptococcus pyogenes [9] it was at most 0.125 µg/mL; in the assay on Streptococcus pneumoniae [10] it was 1 µg/mL (≈ 0.89 µM); in the assay on Streptococcus pneumoniae [11], at most 0.125 µg/mL. The MIC is at most 0.125 µg/mL against Staphylococcus aureus [12] and 2 µg/mL (≈ 1.78 µM) in the assay with Haemophilus influenzae.
On to `CC[C@H]1OC(=O)[C@H](C)[C@@H](O[C@H]2C[C@@](C)(OC)[C@@H](OC(=O)CCOCCOCCNc3ccc4c(c3)c(=O)c(C(=O)O)cn4C3CC3)[C@H](C)O2)[C@H](C)[C@@H](O[C@@H]2O[C@H](C)C[C@H](N(C)C)[C@H]2O)[C@](C)(O)C[C@@H](C)CN(C)[C@H](C)[C@@H](O)[C@]1(C)O`, for which the MIC against Staphylococcus aureus [1] was 0.5 µg/mL (≈ 0.44 µM); in the assay with Streptococcus pyogenes [2], at most 0.125 µg/mL; with Streptococcus pyogenes [3] it was at most 0.125 µg/mL; in the assay on Streptococcus pneumoniae [4], at most 0.125 µg/mL; against Streptococcus pyogenes [5], at most 0.125 µg/mL; with Streptococcus pneumoniae [6], at most 0.125 µg/mL. The MIC against Moraxella catarrhalis was 0.25 µg/mL (≈ 0.22 µM); in the assay on Staphylococcus aureus [7] it was at most 0.125 µg/mL; against Staphylococcus aureus [8], 16 µg/mL (≈ 14.1 µM); in the assay with Streptococcus pyogenes [9], at most 0.125 µg/mL; against Streptococcus pneumoniae [10] it was at most 0.125 µg/mL; against Streptococcus pneumoniae [11] it was at most 0.125 µg/mL. In addition, the MIC against Staphylococcus aureus [12] is at most 0.125 µg/mL; in the assay on Haemophilus influenzae it was 0.5 µg/mL (≈ 0.44 µM).
On to `CCCOC(=O)c1cn(C2CC2)c2cc(Cl)c(NCCOCCC(=O)O[C@H]3[C@H](C)O[C@@H](O[C@H]4[C@H](C)[C@@H](O[C@@H]5O[C@H](C)C[C@H](N(C)C)[C@H]5O)[C@](C)(O)C[C@@H](C)CN(C)[C@H](C)[C@@H](O)[C@](C)(O)[C@@H](CC)OC(=O)[C@@H]4C)C[C@@]3(C)OC)cc2c1=O`, for which the MIC with Staphylococcus aureus [1] was 1 µg/mL (≈ 0.856 µM); with Streptococcus pyogenes [2], at most 0.125 µg/mL; in the assay with Streptococcus pyogenes [3] it was at most 0.125 µg/mL; with Streptococcus pneumoniae [4] it was at most 0.125 µg/mL; in the assay on Streptococcus pyogenes [5], at most 0.125 µg/mL; with Streptococcus pneumoniae [6] it was at most 0.125 µg/mL. Moreover, the MIC was 2 µg/mL (≈ 1.71 µM) against Moraxella catarrhalis; 1 µg/mL (≈ 0.856 µM) with Staphylococcus aureus [7]; above 64 µg/mL with Staphylococcus aureus [8]; at most 0.125 µg/mL against Streptococcus pyogenes [9]; at most 0.125 µg/mL with Streptococcus pneumoniae [10]; at most 0.125 µg/mL with Streptococcus pneumoniae [11]. Moreover, the MIC in the assay with Staphylococcus aureus [12] is 1 µg/mL (≈ 0.856 µM); against Haemophilus influenzae, 4 µg/mL (≈ 3.43 µM).
For the molecule `CC[C@H]1OC(=O)[C@H](C)[C@@H](O[C@H]2C[C@@](C)(OC)[C@@H](OC(=O)CCOCCNc3cc4c(=O)c(C(=O)OCOCCOC)cn(C5CC5)c4cc3Cl)[C@H](C)O2)[C@H](C)[C@@H](O[C@@H]2O[C@H](C)C[C@H](N(C)C)[C@H]2O)[C@](C)(O)C[C@@H](C)CN(C)[C@H](C)[C@@H](O)[C@]1(C)O`, the MIC against Staphylococcus aureus [1] is 2 µg/mL (≈ 1.65 µM); in the assay with Streptococcus pyogenes [2], at most 0.125 µg/mL; with Streptococcus pyogenes [3], at most 0.125 µg/mL; in the assay with Streptococcus pneumoniae [4], at most 0.125 µg/mL; against Streptococcus pyogenes [5], at most 0.125 µg/mL; against Streptococcus pneumoniae [6], at most 0.125 µg/mL. Besides, the MIC against Moraxella catarrhalis was 8 µg/mL (≈ 6.59 µM); with Staphylococcus aureus [7], 1 µg/mL (≈ 0.824 µM); with Staphylococcus aureus [8], above 64 µg/mL; in the assay on Streptococcus pyogenes [9] it was at most 0.125 µg/mL; against Streptococcus pneumoniae [10] it was at most 0.125 µg/mL; in the assay on Streptococcus pneumoniae [11], 0.25 µg/mL (≈ 0.206 µM). For the same molecule, the MIC amounted to 2 µg/mL (≈ 1.65 µM) with Staphylococcus aureus [12] and 8 µg/mL (≈ 6.59 µM) in the assay on Haemophilus influenzae.
Take `CC[C@H]1OC(=O)[C@H](C)[C@@H](O[C@H]2C[C@@](C)(OC)[C@@H](OC(=O)CCOCCNc3cc4c(=O)c(C(=O)OCOC(=O)C(C)(C)C)cn(C5CC5)c4cc3Cl)[C@H](C)O2)[C@H](C)[C@@H](O[C@@H]2O[C@H](C)C[C@H](N(C)C)[C@H]2O)[C@](C)(O)C[C@@H](C)CN(C)[C@H](C)[C@@H](O)[C@]1(C)O`: the MIC against Staphylococcus aureus [1] was 4 µg/mL (≈ 3.23 µM); against Streptococcus pyogenes [2], at most 0.125 µg/mL; against Streptococcus pyogenes [3], at most 0.125 µg/mL; against Streptococcus pneumoniae [4], at most 0.125 µg/mL; in the assay on Streptococcus pyogenes [5] it was at most 0.125 µg/mL; in the assay with Streptococcus pneumoniae [6], at most 0.125 µg/mL. For the same molecule, the MIC was 2 µg/mL (≈ 1.61 µM) in the assay with Moraxella catarrhalis; 1 µg/mL (≈ 0.806 µM) in the assay on Staphylococcus aureus [7]; above 64 µg/mL with Staphylococcus aureus [8]; at most 0.125 µg/mL with Streptococcus pyogenes [9]; at most 0.125 µg/mL with Streptococcus pneumoniae [10]; 0.5 µg/mL (≈ 0.403 µM) in the assay on Streptococcus pneumoniae [11]. For the same molecule, the MIC against Staphylococcus aureus [12] was 2 µg/mL (≈ 1.61 µM); in the assay on Haemophilus influenzae it was 1 µg/mL (≈ 0.806 µM).
